In US6057450A, “Derivatives of pyroglutaminic acid preparation process and applications” (Totiam, S.L., priority 1994, dated 2000):

Assays:
human lymphocytes = test: in vitro non-specific lymphoproliferative response (RLP-I) to PHA, human lymphocyte cultures; assay type: cell-based; details: for RLP-I B < A, number of witness models / RLP-I B < A, percentage of witness models / RLP-I B > A, number of witness models / RLP-I B > A, percentage of witness models: Table V, PHA + BRM-BLAS (B) versus PHA (A); for number of cases with RLP-I B > A in 33-50% of the witness models / number of cases with RLP-I B > A in 67% of the witness models / number of cases with RLP-I B > A in 100% of the witness models / percentage of cases with RLP-I B > A in 33-50% of the witness models / percentage of cases with RLP-I B > A in 67% of the witness models / percentage of cases with RLP-I B > A in 100% of the witness models: Table VI, intragroup individual analysis
Procedure: The "in vitro" lymphocyte response has been assessed in samples of circulating and peripheral venous blood from asymptomatic blood donor adults of both sexes. In general, the lymphocyte cultures include in each case six experimental models called witnesses, and incorporate progressive doses between 0.25-6.0 units (20-500 ng) of the BRM-BLAS compounds and PHA. The RLP-I of each one has been morphologically determined and is expressed in absolute values of lymphoblasts/10,000.
Systematically, in all the cases it has been tabulated the RLP-I to the PHA, basal, of the PHA models; to the PHA+BRM-BLAS, of the "witness" models and the maximum individual response of the witness models (RMC), in each case.

[1] = tested on: circulating peripheral blood lymphocytes; test: in vivo lymphocyte kinetics / response in asymptomatic rabbits; design: species or system New Zealand's albino, giant rabbits
Text: (§1) The pharmacodynamic study to assess the leuko-lymphocyte kinetics has been carried out in New Zealand's albino, giant, female, adult, asymptomatic (healthy) rabbits. The blood samples with EDTA (ethylene-diamino-tetraAcetic acid), non-coagulable, for the periodical weekly controls, have been obtained by aseptic puncture from the marginal vein of the outer ear. The count and the differential cytologic survey of the white series has been routinely performed in a "Coulter" (Coulter Cientifica, S.A., STKs model) differential analyzer, within the two hours following the extraction.
Hereinafter, there is a summary of the most significant results of the preclinical protocols which include different experimental conditions, different BRM-BLAS products and doses which vary in vary of their concentration of the product, frequency and number. […]
This study comprises three concatenated experimental situations. The first one is focused on the vicissitudes of the leuko-lymphocyte kinetics occurred during a pause, "first" moment, that takes place months after several doses, mainly of BRM-BLAS 236 (Cl) compounds and includes 30 individual assessments (6 of the group) days 0 to 39. The second "second" moment, is centered on the successive changes occurred after the administration on the 39th day of an intravenous dose of 8 u/Kg (0.6 mcg/Kg) of the BRM-BLAS 278 (Ac) compounds and includes a total of 25 individual assessments (5 of the group), days 43rd to 68th. The third one, moments "third" to "seventh", analyzes the changes induced after the intravenous administration on the 68th day of 22 u/Kg (1.8 mcg/Kg) of BRM-BLAS 320 (Ac) compounds and includes […] (6 of the group×5 times), days 75th to 287th of the study. The assessment prior to the last dose, the lymphocyte average of which is the lowest of the group during the study, has been selected as the common baseline (100%) for reference of the comparative analysis between the assessments.

[2] = tested on: circulating peripheral blood leukocytes; test: in vivo leukocyte kinetics / response in asymptomatic rabbits; design: species or system New Zealand's albino, giant rabbits
Text: as §1
Hereinafter, there is a summary of the most significant results of the preclinical protocols which include different experimental conditions, different BRM-BLAS products and doses which vary in vary of their concentration of the product, frequency and number.
The leuko-lymphocyte mean values of the group run parallelly during the study, in general above the respective basal values before the treatment to which they return in the last two assessments. They reach the higher ones 7, 16 and 20 days after the first, second and third dose, FIG. 12, FIG. 13 and Table VIII (assessments: 3, 8 and 13).
A total number of 225 individual assessments and 45 of the group assessments have been performed, grouped in four evolutive periods moments. The "first" one includes the 40 individual assessments (8 of the group) after the two first doses, days 0 to 43rd; the "second", the 85 (17 of the group) after the third, fourth and fifth doses, days 46th to 147th; the "third", the first 50 (10 of the group) after the sixth, days 153rd to 213th, and the "fourth", the last 50 (10 of the group), days 220th to 282nd, respectively. The assessment of the group prior to the third dose (43rd day), the lymphocyte mean of which has been the lowest during the survey, has been taken as the natural reference baseline for the comparative analysis of punctual and grouped data.
This trail is subsequent to the protocol previously described and corresponds to the "fifth" moment of the global study, FIG. 14 and FIG. 15.
After the subcutaneous administration of a dose of 30 u/Kg (2.1 mcg/Kg) of the BRM-BLAS 278 (Cl) compounds 137 days after the sixth dose of the BRM-BLAS 320 (Ac) compounds, in the presence of high figures of the lymphocyte mean of the group, at the "fourth" moment, such figures were specifically exceeded by the 4th and 5th punctual weekly assessments of the "fifth" moment, 24th (184%) and 31st (180%) days, respectively, FIG. 14. Globally, 28% of the assessment exceed basal values by one or two standard deviations; 57% in three, and the difference is statistically in all of them. The resulting mean of the data gathered for the "fifth" moment with a 158% of the basal values, exceed those of the four previous moments, and the difference is statistically significant compared with those of the "first", "second" and "third", and exceeds that of the "first" in more than one standard deviation, FIG. 15 and (Table IX). […]

Swiss mice = test: single-dose intraperitoneal toxicity in mice; details: i.p. single dose; 236 (Cl) 800 mcg/Kg, 278 (Ac) 4.2 mg/Kg, 320 (Ac) 4.8 mg/Kg, respectively
patients with cancer = details: patients with favourable prognosis factors; cited from earlier work
[3] = progressive i.v. doses, "second" moment
[4] = progressive i.v. doses, grouped results
[5] = single i.v. high dose 22 u/Kg (1.8 mcg/Kg)
[6] = three i.v. doses 5 U/Kg (300 ng/Kg) every 21 days, assessment 8, 37th day
[7] = three i.v. doses 5 U/Kg every 21 days

CC(=O)NC1(C[n+]2ccccc2)CC(C(=O)O)N(C(C)=O)C1=O (stereo not shown) [BRM-BLAS 320 (Ac), 1-acetyl-4-acetylamino-4-(1-pyridiniomethyl) pyroglutamic acid acetate]
RLP-I B < A, number of witness models (human lymphocytes): 17 Num. | RLP-I B < A, percentage of witness models (human lymphocytes): 21% | RLP-I B > A, number of witness models (human lymphocytes): 65 Num. | RLP-I B > A, percentage of witness models (human lymphocytes): 70% | number of cases with RLP-I B > A in 33-50% of the witness models (human lymphocytes): 14 Num. | number of cases with RLP-I B > A in 67% of the witness models (human lymphocytes): 9 Num. | number of cases with RLP-I B > A in 100% of the witness models (human lymphocytes): 5 Num. | percentage of cases with RLP-I B > A in 33-50% of the witness models (human lymphocytes): 100% | percentage of cases with RLP-I B > A in 67% of the witness models (human lymphocytes): 64% | percentage of cases with RLP-I B > A in 100% of the witness models (human lymphocytes): 36% | animals with individual lymphocyte mean "fourth" versus "first" moment higher by three standard deviations ([1]; progressive i.v. doses): 60% | animals with individual lymphocyte mean "fourth" versus "first" moment higher by two standard deviations ([1]; progressive i.v. doses): 40% | lymphocyte response ([1]; progressive i.v. doses 5-30 units/Kg (0.4-2.4 mcg/Kg)): selective and significant increase in the number of lymphocytes that starts after the third dose and reaches its maximum level after the sixth | assessments with lymphocyte mean exceeding one standard deviation, "second" moment [1, 3]: 41% | assessments with statistically significant lymphocyte difference, "second" moment [1, 3]: 43% | highest average lymphocyte value versus basal ([1]; progressive i.v. doses, day 241st of the study, "fourth" moment): 178% | assessments exceeding mean lymphocyte basal values by more than one, two or three standard deviations, "third" moment ([1]; progressive i.v. doses, days 153rd to 213th): 80% | assessments exceeding mean lymphocyte basal values by more than one, two or three standard deviations, "fourth" moment ([1]; progressive i.v. doses, days 220th to 282nd): 100% | grouped lymphocyte mean versus baseline, "first" period [1, 4]: 110% | grouped lymphocyte mean versus baseline, "fourth" period [1, 4]: 152% | grouped lymphocyte mean versus baseline, "second" period [1, 4]: 120% | grouped lymphocyte mean versus baseline, "third" period [1, 4]: 131% | cases with individual lymphocyte mean at "seventh" exceeding "first" moment by one, two or three standard deviations ([1]; single i.v. high dose 22 u/Kg): 80% | lymphocyte mean versus baseline from the 53rd day [1, 5]: surpasses the baseline by two or three standard deviations from the 53rd day | onset of lymphocyte increase after the dose [1, 5]: twenty days after the high dose | highest lymphocyte mean versus basal ([1]; single i.v. high dose 22 u/Kg (1.8 mcg/Kg), 88th and 202nd days after dose): 212% | duration of statistically significant lymphocyte increase ([1]; single i.v. high dose 22 u/Kg (1.8 mcg/Kg), from 53rd day): statistically significant uninterruptedly, until the 213th day | selectivity for lymphocytes versus granulocytes and monocytes ([1]; single i.v. high dose 22 u/Kg, FIG. 18 and FIG. 19): sustained and selective immunomodulating activity or effect of the BRM-BLAS 320 (Ac) compounds on subpopulations of lymphocytes without detriment to the number of granulocytes and monocytes | animals with leukocyte mean at "fourth" exceeding "first" moment by two or three standard deviations ([2]; progressive i.v. doses): 40% | assessments with leukocyte mean exceeding basal by one standard deviation ([2]; progressive i.v. doses): 4.4% | leukocyte punctual assessments versus basal ([2]; progressive i.v. doses): the difference is never became statistically significant | leukocyte mean versus basal, 227th day ([2]; progressive i.v. doses, 227th day): 129% | leukocyte mean versus basal, 241st day ([2]; progressive i.v. doses, 241st day): 136% | tolerance / toxicity, single dose (Swiss mice): perfectly tolerated without evidences of toxicity

IFN-α
effect on tumor metastases (patients with cancer): can cause the regression of tumor metastases

NC1(C[n+]2ccccc2)CC(C(=O)O)NC1=O (stereo not shown) [BRM-BLAS 236 (Cl), 4-ammonium-4-(1-pyridiniomethyl) pyroglutamic acid dichloride]
RLP-I B < A, number of witness models (human lymphocytes): 20 Num. | RLP-I B < A, percentage of witness models (human lymphocytes): 30% | RLP-I B > A, number of witness models (human lymphocytes): 46 Num. | RLP-I B > A, percentage of witness models (human lymphocytes): 70% | number of cases with RLP-I B > A in 33-50% of the witness models (human lymphocytes): 11 Num. | number of cases with RLP-I B > A in 67% of the witness models (human lymphocytes): 9 Num. | number of cases with RLP-I B > A in 100% of the witness models (human lymphocytes): 2 Num. | percentage of cases with RLP-I B > A in 33-50% of the witness models (human lymphocytes): 100% | percentage of cases with RLP-I B > A in 67% of the witness models (human lymphocytes): 82% | percentage of cases with RLP-I B > A in 100% of the witness models (human lymphocytes): 18% | highest lymphocyte mean value versus basal [1, 6]: 157% | assessments with lymphocyte mean above basal by more than three standard deviations [1, 7]: 10% | assessments with lymphocyte mean above basal by more than two standard deviations [1, 7]: 20% | assessments with lymphocyte mean above basal over the standard deviation [1, 7]: 75% | assessments with statistically significant difference of lymphocytes versus basal [1, 7]: 35% | highest leukocyte mean value versus basal [2, 6]: 169% | assessments with leukocyte mean above basal by more than three standard deviations [2, 7]: 5% | assessments with leukocyte mean above basal by more than two standard deviations [2, 7]: 20% | assessments with leukocyte mean above basal over the standard deviation [2, 7]: 55% | assessments with statistically significant difference of leukocytes versus basal [2, 7]: 70% | leukocyte response [2, 7]: increase in the number of leukocytes which affect granulocytes as well as lymphocytes in the same way | time to higher leuko-lymphocyte mean values after first dose ([2]; three i.v. doses 5 U/Kg every 21 days, first dose): 7 days | leuko-lymphocyte mean of "first" period versus "fourth" period and basal ([2]; three i.v. doses 5 U/Kg every 21 days, grouped results): practically by two standard deviations | time to higher leuko-lymphocyte mean values after second dose ([2]; three i.v. doses 5 U/Kg every 21 days, second dose): 16 days | time to higher leuko-lymphocyte mean values after third dose ([2]; three i.v. doses 5 U/Kg every 21 days, third dose): 20 days | tolerance / toxicity, single dose (Swiss mice): perfectly tolerated without evidences of toxicity
